Source: article PMC5880945, “D-Arg^0-Bradykinin-Arg-Arg, a Latent Vasoactive Bradykinin B2 Receptor Agonist Metabolically Activated by Carboxypeptidases” (Frontiers in Pharmacology, 2018)
Square brackets hold non-standard residues; d marks the D form. Peptide text beside a SMILES is read from it.

Experiments:
[1] = tested on: GFP-tagged rabbit B2R (B2R-GFP); experiment: B2R-GFP endocytosis and recycling, epifluorescence microscopy, HEK 293 cells; format: cell-based; conditions: 30 min; for B2R-GFP internalization with Plummer’s inhibitor, in words: Plummer’s inhibitor alone
Protocol: This system, based on a serum-containing culture medium, contains ACE and Arg-carboxypeptidase activities ([Bachvarov et al., 2001]; [Charest-Morin et al., 2014]). r-BK or r-BK-RR were added to 35-mm Petri dishes containing the cells with optional pre-treatment with peptidase inhibitors and the cells were observed as described after 30 min of incubation at 37°C ([Charest-Morin et al., 2014]).

anesthetized rats [2] = experiment: In vivo hemodynamics in anesthetized rats, dose-response; parameters: species or system male Sprague-Dawley rats; conditions: for hypotensive potency, r-BK vs r-BK-RR, in words: i.v. bolus 0.025–12.8 μg/kg; for heart rate response, in words / peptide doses giving hypotensive response significantly greater than vehicle: i.v. bolus; for heart rate response, in words: after brief bradycardic injection artifact, statistically significant only at the highest tested doses; for peptide doses giving hypotensive response significantly greater than vehicle: vs BSA-saline vehicle (Dunnett’s test)
Protocol: (§1) All surgical and experimental procedures were reviewed and approved by the Animal Care and Handling Committee of Laval University, in accordance with the Canadian Council on Animal Care. Experiments were performed on male Sprague-Dawley rats (300–375 g) purchased from Charles River Laboratories (St-Constant, QC, Canada). The rats were housed in a light-controlled (12:12-h light-dark cycle (lights on at 0600)) and temperature-regulated room (22 ± 1°C). Animals had free access to normal chow diet and tap water. They were allowed to acclimate to their environmental conditions for 1 week prior to being studied. At the end of the acclimation period, the rats were anesthetised with sodium pentobarbital (50 mg kg^-1, i.p., supplemented as required) and had one catheter implanted into the right jugular vein [for intravenous (i.v.) injection] and one into the left femoral artery [for direct and continuous measurement of blood pressure and heart rate as previously described ([Jean et al., 2016])]. Experiments started at least 20 min following the end of surgery in anesthetised rats.
Baseline measurements of heart rate and phasic and mean arterial blood pressure were recorded over a period of 15 min in anesthetized rats. A dose response curve was then obtained by recording changes in blood pressure and heart rate elicited by i.v. injection of peptide vehicle followed by increasing doses (0.025–12.8 μg/kg) of r-BK or r-BK-RR. Peptides were dissolved in isotonic saline (0.9% NaCl) containing 0.1% BSA to prevent the adsorption of peptide to the glassware and plastic surfaces. All i.v. injections were given as 100 μl boluses which were washed in with a further 100 μl of saline (the dead space of the catheter). Only one peptide was tested per group of rats and each injection started with saline-BSA 0.1% followed by the lowest dose of peptide. The next dose was administered once all recorded cardiovascular parameters had returned to baseline after the previous injection (usually 2–10 min). At the end of the experiments each animal was euthanized with an overdose of sodium pentobarbital (240 mg/kg, i.v.).
Results are presented as means ± SEM. Radioligand binding data were fitted by non-linear regression to a one-site competition equation using a least-square method (Prism 5.0, GraphPad Software Inc., San Diego, CA, United States) and IC50 values calculated from this procedure. The same computer program was used to draw concentration-effect curves generated with the contractility assay (least square fitting of sigmoidal dose-response equation with variable slope) and to derive contractile EC50 values. Data describing the dose-response relationship of novel peptides vs. hypotension and heart rate changes, the baseline values of heart rate and mean arterial blood pressure and the effect of drugs on the hemodynamic responses to r-B K and r-BK-RR were assessed by using one-way analysis of variance (ANOVA) followed by the Dunnett’s test (repeated comparison with a common control; Prism 5.0 software).

anesthetized rats [3] = experiment: In vivo hemodynamics in anesthetized rats pretreated with icatibant or peptidase inhibitors; parameters: species or system male Sprague-Dawley rats; conditions: 1.6 μg/kg i.v.; for hypotensive response after Plummer’s inhibitor, in words: Dunnett’s P < 0.05 (r-BK-RR); for heart rate response after enalaprilat + Plummer’s inhibitor, in words / duration of hypotensive episode after enalaprilat + Plummer’s inhibitor, in words / hypotensive response after enalaprilat + Plummer’s inhibitor, in words: enalaprilat 0.1 mg/kg + Plummer’s inhibitor 0.75 mg/kg i.v. 15 min before; for duration of hypotensive episode after enalaprilat + Plummer’s inhibitor, in words / hypotensive response after enalaprilat + Plummer’s inhibitor, in words: Dunnett’s P < 0.01 (r-BK); for hypotensive response after enalaprilat + Plummer’s inhibitor, in words: P < 0.05 (r-BK-RR); for duration of hypotensive episode after enalaprilat, in words: Dunnett’s P < 0.001 (r-BK-RR); for duration of residual hypotensive episode after icatibant, in words / heart rate response after icatibant, in words / hypotensive response after icatibant, in words: icatibant 75 μg/kg i.v. 15 min before; for hypotensive response after icatibant, in words: Dunnett’s P < 0.001 (r-BK), P < 0.01 (r-BK-RR)
Protocol: as §1
The mechanism subserving the cardiovascular responses to random i.v. injections of r-BK and r-BK-RR at the dose of 1.6 μg/kg, was evaluated in rats pretreated with specific antagonists. In these experiments, the rats were separated in four groups depending on the antagonist tested, and the cardiovascular responses to the peptides agonists were compared with those elicited in the untreated control group of rats. In the first group of treated rats, the long acting and selective B2R antagonist, icatibant (Hoe 140) (D-Arg-[Hyp^3, Thi^5, D-Tic^7, Oic^8]) bradykinin ([Hock et al., 1991]; [Wirth et al., 1991]; [Rhaleb et al., 1992]; [Marceau et al., 1994]) was intravenously administered as bolus (75 μg/kg, 0.1 ml) following a 10 min period of baseline measurements of heart rate and blood pressure. Fifteen minutes later, recording changes in blood pressure and heart rate elicited by i.v. injection of peptide vehicle (saline-BSA 0.1%) followed by random injections of r-BK and r-BK-RR, were made as described above. The next peptide was administered once all recorded cardiovascular parameters had returned to baseline after the previous injection. Further experiments were made in a second group of rats pretreated with the ACE inhibitor, enalaprilat. In these experiments, enalaprilat was intravenously administered as bolus ([…], 0.1 ml) 15 min before the i.v. injections of peptide vehicle and both customized peptides, as above. Further experiments were also carried out in rats pretreated with the Plummer’s inhibitor (mercaptomethyl-3-guanidinoethylthiopropanoic acid) a high affinity inhibitor of arginine carboxypeptidases that is an arginine analog ([Plummer and Ryan, 1981]). The inhibitor was intravenously administered as bolus (0.75 mg/kg, 0.1 ml) followed 15 min later by the i.v. injections of saline-BSA 0.1%, and then r-BK and -r-BK-RR (1.6 μg/kg) in random order. A fourth group of rats was pretreated with a combined i.v. injection of enalaprilat (0.1 mg/kg) and the Plummer’s inhibitor (0.75 mg/kg) 15 min before the randomized i.v. injections of both customized peptides, as above. The doses of different inhibitors were based on preliminary experiments and from previous studies performed by us and others ([Ishida et al., 1989]; [Wirth et al., 1991]; [Muto et al., 2003]; [Jean et al., 2016]). At the end of the experiments the rats were euthanized with an overdose of sodium pentobarbital (240 mg/kg, i.v.).
Results are presented as means ± SEM. Radioligand binding data were fitted by non-linear regression to a one-site competition equation using a least-square method (Prism 5.0, GraphPad Software Inc., San Diego, CA, United States) and IC50 values calculated from this procedure. […]

[4] = Plummer’s inhibitor 0.75 mg/kg i.v. 15 min before
[5] = enalaprilat 0.1 mg/kg i.v. 15 min before
[6] = enalaprilat 0.1 mg/kg i.v. 15 min before, Dunnett’s P < 0.05 (r-BK)

Row | Compound | B2R-GFP internalization with Plummer’s inhibitor, in words ([1]; 100 nM, 15 min before) | B2R-GFP internalization with enalaprilat + Plummer’s inhibitor, in words ([1]; 100 nM, both inhibitors 15 min before) | B2R-GFP internalization with enalaprilat, in words ([1]; 100 nM, enalaprilat alone, 15 min before) | hypotensive potency, r-BK vs r-BK-RR, in words (anesthetized rats [2]) | heart rate response, in words (anesthetized rats [2]) | peptide doses giving hypotensive response significantly greater than vehicle (anesthetized rats [2]) [µg/kg] | duration of hypotensive episode after Plummer’s inhibitor, in words (anesthetized rats [3]; [4]) | heart rate (tachycardic) response after Plummer’s inhibitor, in words (anesthetized rats [3]; [4]) | hypotensive response after Plummer’s inhibitor, in words (anesthetized rats [3]; [4]) | heart rate response after enalaprilat + Plummer’s inhibitor, in words (anesthetized rats [3]) | duration of hypotensive episode after enalaprilat + Plummer’s inhibitor, in words (anesthetized rats [3]) | hypotensive response after enalaprilat + Plummer’s inhibitor, in words (anesthetized rats [3]) | duration of hypotensive episode after enalaprilat, in words (anesthetized rats [3]; [5]) | hypotensive response after enalaprilat, in words (anesthetized rats [3]; [6]) | duration of residual hypotensive episode after icatibant, in words (anesthetized rats [3]) | heart rate response after icatibant, in words (anesthetized rats [3]) | hypotensive response after icatibant, in words (anesthetized rats [3]) | B2R-GFP internalization, in words ([1]; 100 nM, 37°C, serum-containing culture medium, no inhibitor) | proportion of cells exhibiting internalization of B2R-GFP ([1]; with enalaprilat and/or Plummer’s inhibitor (not influenced by any)) [%] | tachycardic response after enalaprilat, in words (anesthetized rats [3]; [6])
1 | N=C(N)NCCC[C@@H](N)C(=O)N[C@@H](CCCNC(=N)N)C(=O)N1CCC[C@H]1C(=O)N1CCC[C@H]1C(=O)NCC(=O)N[C@@H](Cc1ccccc1)C(=O)N[C@@H](CO)C(=O)N1CCC[C@H]1C(=O)N[C@@H](Cc1ccccc1)C(=O)N[C@@H](CCCNC(=N)N)C(=O)N[C@@H](CCCNC(=N)N)C(=O)N[C@@H](CCCNC(=N)N)C(=O)O [r-BK-RR, D-Arg^0-BK-Arg-Arg] (H-[dR]RPPGFSPFRRR-OH) | only a partial effect | suppress the effect of r-BK-RR | suppress the effect of r-BK-RR | virtually equipotent hypotensive agents | brief tachycardic response, statistically significant only at the highest tested doses | ≥ 0.4 | not different from those seen in untreated rats | not different from those seen in untreated rats | significantly reduce the hypotensive response | not different from those seen in untreated rats | not different from those seen in untreated rats | significantly reduce the hypotensive response | significantly increase the duration of the hypotensive episode | no significant effect on the hypotensive response | not different from those of controls | not different from those of controls | strongly reduce the hypotensive response | – | – | –
2 | N=C(N)NCCC[C@@H](N)C(=O)N[C@@H](CCCNC(=N)N)C(=O)N1CCC[C@H]1C(=O)N1CCC[C@H]1C(=O)NCC(=O)N[C@@H](Cc1ccccc1)C(=O)N[C@@H](CO)C(=O)N1CCC[C@H]1C(=O)N[C@@H](Cc1ccccc1)C(=O)N[C@@H](CCCNC(=N)N)C(=O)O [r-BK, D-Arg^0-BK] (H-[dR]RPPGFSPFR-OH) | no effect | – | – | virtually equipotent hypotensive agents | brief tachycardic response, statistically significant only at the highest tested doses | ≥ 0.4 | – | no effect | no effect | not different from that seen in untreated rats | significantly potentiated | significantly potentiated | not different from that seen in untreated rats | significantly potentiated | comparable to those seen in the untreated group | comparable to those seen in the untreated group | significantly inhibited | the fluorescent receptor was internalized | > 90 | significantly potentiated (P < 0.05, Dunnett’s test) as was the tachycardic response
